Experimental data from the NIST ThermoML archive (doi:10.1021/je300920t).
Numbers after ± are expanded uncertainties.

Experiments:
[1] = Drop volume
[2] = xn = mol fraction of the nth substance listed; conditions: Drop volume, x1 = 0.5412

Row | surface tension liquid-gas ([1]; 293.15 K) [mN/m] | surface tension liquid-gas ([1]; 303.15 K) [mN/m] | surface tension liquid-gas ([1]; 313.15 K) [mN/m] | surface tension liquid-gas ([2]; 313.15 K) [mN/m] | surface tension liquid-gas ([2]; 323.15 K) [mN/m] | surface tension liquid-gas ([2]; 333.15 K) [mN/m] | surface tension liquid-gas ([2]; 343.15 K) [mN/m] | SMILES
1 | 48.48 ± 0.47 | 47.64 ± 0.46 | 46.88 ± 0.46 |  |  |  |  | NCCO [2-aminoethan-1-ol]
2 |  |  |  | 51.5 ± 1.8 | 50.4 ± 1.8 | 49.3 ± 1.8 | 48.1 ± 1.8 | NCCO [2-aminoethan-1-ol] + O
